biological target: human plasma kallikrein (Homo sapiens, UniProt P03952); test: Kallikrein inhibition FLINT assay with quenched AMC peptide substrate Z-Gly-Pro-Arg-AMC (end point EP or kinetic KIN reads); format: biochemical; conditions: kinetic reads at 5 min intervals over 30 min; read-out: Kallikrein (KIN) IC50
Method in brief: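 Enzyme and compound were preincubated 30 min before adding 50 μM AMC substrate in pH 7.5 Tris/NaCl/CaCl2/BSA/CHAPS buffer. AMC release was read at 30 min endpoint or every 5 min.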

human plasma kallikrein, sequence (P03952 391-638 limits assumed): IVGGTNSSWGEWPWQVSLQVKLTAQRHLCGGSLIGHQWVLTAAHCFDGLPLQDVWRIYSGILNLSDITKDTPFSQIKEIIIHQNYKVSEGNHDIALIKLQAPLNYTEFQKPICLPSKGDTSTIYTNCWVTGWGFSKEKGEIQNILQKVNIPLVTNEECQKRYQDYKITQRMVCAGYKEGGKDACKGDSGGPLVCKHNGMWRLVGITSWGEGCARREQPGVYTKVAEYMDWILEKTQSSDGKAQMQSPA
human plasma kallikrein, sequence (P03952 20-390 partner limits assumed): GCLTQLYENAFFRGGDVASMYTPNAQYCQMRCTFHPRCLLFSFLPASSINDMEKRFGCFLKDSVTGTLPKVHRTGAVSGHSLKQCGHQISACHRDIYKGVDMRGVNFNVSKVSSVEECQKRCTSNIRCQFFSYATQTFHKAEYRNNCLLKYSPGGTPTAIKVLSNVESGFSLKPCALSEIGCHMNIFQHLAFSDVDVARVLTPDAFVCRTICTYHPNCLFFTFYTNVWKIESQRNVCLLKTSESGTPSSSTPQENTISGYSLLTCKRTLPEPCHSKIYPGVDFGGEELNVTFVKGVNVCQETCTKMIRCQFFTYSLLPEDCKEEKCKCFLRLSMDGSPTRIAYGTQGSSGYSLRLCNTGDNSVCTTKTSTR

Structure (SMILES)	IC50 [nM]
NC(=O)Cc1ccn(CC(c2ccc(-c3c(-n4cnnn4)ccc(Cl)c3F)c[n+]2[O-])n2cc(-c3ccnc(C(F)(F)F)c3)cn2)n1 (centres unmarked) [Example P486]	10.2
O=C(c1cnn(CC(c2ccc(-c3c(-n4cnnn4)ccc(Cl)c3F)c[n+]2[O-])n2cc(-c3cc[n+]([O-])cc3)cn2)c1)N1CCCCC1 (centres unmarked) [Example P292]	51.3
Cn1ncnc1-c1cnn([C@H](Cc2ccn(C(F)F)n2)c2ccc(-c3c(-n4cc(C(F)(F)F)nn4)ccc(Cl)c3F)c[n+]2[O-])c1 [Example P816]	86.3
Cn1nncc1-c1cnn([C@H](Cc2ccc(F)cc2)c2ccc(-c3c(-n4cc(OC(F)F)nn4)ccc(Cl)c3F)c[n+]2[O-])c1 [Example P635]	3.4
Cn1nnc(F)c1-c1cnn([C@H](Cc2ccc(C(F)(F)F)nc2)c2ccc(-c3c(-n4cnnn4)ccc(Cl)c3F)c[n+]2[O-])c1 [Example P780]	17.7
O=C(Cc1cnn(CC(c2ccc(-c3c(-n4cnnn4)ccc(Cl)c3F)c[n+]2[O-])n2cc(-c3ccnc(C(F)(F)F)c3)cn2)c1)N1CCCCC1 (centres unmarked) [Example P475]	324
Cn1ccc(CC(c2ccc(-c3c(-n4cnnn4)ccc(Cl)c3F)c[n+]2[O-])n2cc(-c3ccnc(C#N)c3)cn2)n1 (centres unmarked) [Example P359]	10.2
COC(=O)Nc1ccc(-c2cnn(C(CC3CC3C(=O)N3CCCCC3)c3ccc(-c4c(-n5cnnn5)ccc(Cl)c4F)c[n+]3[O-])c2)cc1 (centres unmarked) [Example P231]	366
O=C1CCCN1CC(c1ccc(-c2c(-n3cnnn3)ccc(Cl)c2F)c[n+]1[O-])n1cc(-c2cc[n+]([O-])c(C(F)F)c2)cn1 (centres unmarked) [Example P365]	30.1
N#Cc1cc(-c2cnn(C(Cn3cc(F)cn3)c3ccc(-c4c(-n5cnnn5)ccc(Cl)c4F)c[n+]3[O-])c2)ccn1 (single isomer, unassigned) [Example P453]	132
[O-][n+]1cc(-c2c(-n3cnnn3)ccc(Cl)c2F)ccc1C(Cn1nccc1C(F)(F)F)n1cc(-c2ccnc(F)c2)cn1 (centres unmarked) [Example P346]	11.8
O=C(c1cnn(CC(c2ccc(-c3c(-n4cnnn4)ccc(Cl)c3F)c[n+]2[O-])n2cc(-c3ccnc(C(F)(F)F)c3)cn2)c1)N1CCCCC1 (single isomer, unassigned) [Example P411]	16
COC(=O)Nc1ccc(-c2cnn(C(Cc3ccn(C)n3)c3ccc(-c4c(-n5cnnn5)ccc(Cl)c4F)c[n+]3[O-])c2)cc1 (racemic) [Example P327]	29.1
[O-][n+]1cc(-c2c(-n3cnnn3)ccc(Cl)c2F)ccc1C(Cc1nn(CC(F)(F)F)cc1F)n1cc(-c2ccnc(C(F)(F)F)c2)cn1 (centres unmarked) [Example P741]	22.1
[O-][n+]1ccc(-c2cnn(C(Cn3cccn3)c3ccc(-c4c(-n5cnnn5)ccc(Cl)c4F)c[n+]3[O-])c2)cc1 (centres unmarked) [Example P348]	27.2
[O-][n+]1cc(-c2c(-n3cnnn3)ccc(Cl)c2F)ccc1[C@@H](Cc1ccc(C(F)(F)F)nc1)n1cc(-c2ncnn2C(F)F)cn1 [Example P783]	18.9
O=C(O)c1ccc(-c2cnn(C(CC3CC3C(=O)N3CCC(c4ccccc4)C3)c3ccc(-c4c(-n5cnnn5)ccc(Cl)c4F)c[n+]3[O-])c2)cc1 (centres unmarked) [Example P175]	365
NC(=O)c1ccc(-c2cnn(C(Cn3cccn3)c3ccc(-c4c(-n5cc(C(F)(F)F)nn5)ccc(Cl)c4F)c[n+]3[O-])c2)cc1F (centres unmarked) [Example P948]	11.8
Cc1ncn(-c2cnn(C(CCOC(F)F)c3ccc(-c4c(-n5cc(OC(F)F)nn5)ccc(Cl)c4F)c[n+]3[O-])c2)n1 (single isomer, unassigned) [Example P825]	588
Cn1ncnc1-c1cnn([C@H](CCOC(F)F)c2ccc(-c3cc(Cl)ccc3-n3cc(C(F)(F)F)nn3)c[n+]2[O-])c1 [Example P805]	256
COc1cc(C(Cc2ccccc2)n2cc(-c3ccc(C(=O)O)cc3)cn2)[n+]([O-])cc1-c1c(OCC(F)(F)F)ccc(Cl)c1F (centres unmarked) [Example Q6]	10.4
[O-][n+]1cc(-c2c(-n3cnnn3)ccc(Cl)c2F)ccc1[C@@H](Cc1ccn(C(F)F)n1)n1cc(-c2ccnn2C(F)F)cn1 [Example P734]	6.4
[O-][n+]1cc(-c2c(-n3cnnn3)ccc(Cl)c2F)ccc1[C@@H](CCOC(F)F)n1cc(-c2scnc2C(F)(F)F)cn1 [Example P580]	13.5
Nc1ccc(-c2cnn(C(Cn3cc(CC(=O)N4CCCCC4)cn3)c3ccc(-c4c(-n5cnnn5)ccc(Cl)c4F)c[n+]3[O-])c2)c(F)n1 (centres unmarked) [Example P471]	51.7
COC(=O)Nc1ccc(-c2cnn(C(CC3CC3C(=O)N3CCCC(c4ccccc4)C3)c3ccc(-c4c(-n5cnnn5)ccc(Cl)c4F)c[n+]3[O-])c2)cc1 (centres unmarked) [Example P222]	189

More lines, now with the values ahead:

IC50 [nM]	Structure (SMILES)
119	COC(=O)Nc1ccc(-c2cnn(C(CC3CCCO3)c3ccc(-c4c(-n5cnnn5)ccc(Cl)c4F)c[n+]3[O-])c2)cc1 (single isomer, unassigned) [Example P202]
72.2	COC(=O)Nc1ccc(-c2cnn(C(CC3CCCCC3)c3ccc(-c4c(-n5cnnn5)ccc(Cl)c4F)c[n+]3[O-])c2)cc1 (centres unmarked) [Example P102]
573	Cn1ncc(Cl)c1-c1cnn(C(CC2CC2)c2ccc(-c3c(-n4cnnn4)ccc(Cl)c3F)c[n+]2[O-])c1 (centres unmarked) [Example P555]
536	O=C(O)c1cccc(-c2cnn(C(CC3CC3)c3ccc(-c4cc(Cl)ccc4-n4cnnn4)c[n+]3[O-])c2)c1 (centres unmarked) [Example P13]
514	Cn1nc(C(F)(F)F)cc1-c1cnn(C(CC2CC2)c2ccc(-c3c(-n4cnnn4)ccc(Cl)c3F)c[n+]2[O-])c1 (centres unmarked) [Example P548]
617	O=C(C1CC1CC(c1ccc(-c2c(-n3cnnn3)ccc(Cl)c2F)c[n+]1[O-])n1cc(-c2ccncc2)cn1)N1CCCCC1 (centres unmarked) [Example P252]
943	[O-][n+]1cc(-c2c(-n3cnnn3)ccc(Cl)c2F)ccc1[C@@H](CC1CC1)n1cc(-c2nnco2)cn1 [Example P545]
> 100	CC1CC1CC(c1ccc(-c2c(-n3cnnn3)ccc(Cl)c2F)c[n+]1[O-])n1cc(-c2ncnn2C(F)F)cn1 (centres unmarked) [Example P766]
54.9	[O-][n+]1cc(-c2c(-n3cnnn3)ccc(Cl)c2F)ccc1[C@@H](CCOC(F)F)n1cc(-c2cnn(C(F)F)n2)cn1 [Example P674]
28.6	[O-][n+]1cc(-c2c(-n3cnnn3)ccc(Cl)c2F)ccc1[C@@H](CCOC(F)F)n1cc(-c2c(Cl)nnn2C(F)F)cn1 [Example P714]
397	[O-][n+]1cc(-c2c(-n3cnnn3)ccc(Cl)c2F)ccc1C(CC1CC1)n1cc(-c2ccnnc2)cn1 (centres unmarked) [Example P397]
151	CCOc1cc(C(CC2CC2)n2cc(-c3cnn(C)c(=O)c3)cn2)[n+]([O-])cc1-c1c(-n2cnnn2)ccc(Cl)c1F (centres unmarked) [Example P137]
532	CC(C)(O)C[C@H](c1ccc(-c2c(-n3cnnn3)ccc(Cl)c2F)c[n+]1[O-])n1cc(-c2ccnn2C(F)F)cn1 [Example P648]
385	[O-][n+]1cc(-c2c(-n3cnnn3)ccc(Cl)c2F)ccc1C(CC1CC1)n1cc(-c2ccnc(C(F)(F)F)n2)cn1 (centres unmarked) [Example P295]
88.1	Cn1ncc2cc(-c3cnn(C(CC4CC4)c4ccc(-c5c(-n6cnnn6)ccc(Cl)c5F)c[n+]4[O-])c3)ccc21 (centres unmarked) [Example P265]
2.1	COc1cc(C(CC2CC2)n2cc(-c3ccnn3C)cn2)[n+]([O-])cc1-c1c(-n2cnnn2)ccc(Cl)c1F (single isomer, unassigned) [Example P491]

Source: US11814364B2, “Pyridine N-oxide derivatives useful as factor XIa inhibitors” (Janssen Pharmaceutica NV, priority 2021, dated 2023)
